The results in this text go back to patent publication US20230112641A1, “METHODS OF TREATING DIARRHEA OR INFLAMMATORY CONDITIONS OF THE GUT” (ABBOTT LABORATORIES, priority 2020, published 2023).

The target in the assay is T1, human GPR109A (Homo sapiens, UniProt Q8TDS4).
T1 construct: expressed in transfected cells
Nature of the assay: Intracellular cAMP levels in forskolin-treated GPR109A-expressing colonic cells, measured by fluorescence (cAMP-Glo Assay). As to conditions: cAMP reduction in forskolin-treated cells; read-out: EC50 to activate the GPR109A receptors. It is filed as cell-based. (In general: Cyclic AMP is a second messenger, typically raised through Gs and lowered through Gi signalling.)

T1 sequence (Q8TDS4 whole entry): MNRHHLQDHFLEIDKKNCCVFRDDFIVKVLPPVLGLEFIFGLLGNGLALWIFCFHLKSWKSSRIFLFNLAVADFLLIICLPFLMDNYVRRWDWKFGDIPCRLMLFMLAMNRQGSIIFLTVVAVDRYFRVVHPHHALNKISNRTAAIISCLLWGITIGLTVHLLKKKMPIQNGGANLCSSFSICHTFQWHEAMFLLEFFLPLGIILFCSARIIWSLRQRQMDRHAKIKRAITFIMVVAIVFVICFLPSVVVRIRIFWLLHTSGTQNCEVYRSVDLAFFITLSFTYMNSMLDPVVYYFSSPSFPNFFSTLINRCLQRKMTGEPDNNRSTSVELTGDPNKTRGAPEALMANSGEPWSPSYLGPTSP
Excerpt: The activity of GI-coupled receptors like GPR109A is normally assessed by showing a reduction in cellular levels of cAMP in forskolin-treated cells. This is normally done using the commercially available kit, cAMP-Glo™ Assay. […] When a GI-coupled receptor is activated in forskolin-treated cells, cAMP levels will go up.

As to `CC(C)(O)CC(=O)O` [HMB, beta-hydroxy-beta-methylbutyrate], the EC50 (commonly the concentration needed to bring the measured effect to its halfway point) lay within 250 to 2500 µM.
